Reference: patent US9051333B2, “6,7-dihydroimidazo [2,1-b] [1,3]oxazine bactericides” (OTSUKA PHARMACEUTICAL CO., LTD., priority 2011, dated 2015)
≈ marks a conversion by molar mass, not a printed value. Read-outs that look alike come from different tables or passages of the source.

System: Mycobacterium tuberculosis (M. tuberculosis kurono)
Assay: Antimicrobial Assay (Agar Plate Dilution Method), M. tuberculosis kurono
Assay type: cell-based
Settings: 336 h, read-out: Minimum Inhibitory Concentration
[1] = M. tuberculosis kurono, 7H11 agar medium, cultured at 37° C. for 14 days

## C[C@@H]1CN(Cc2ccc(Oc3ccc(OC(F)(F)F)cc3)cc2)CCN1c1ccc(OC[C@H]2CCn3cc([N+](=O)[O-])nc3O2)cc1 [Example 335, (R)-7-(4-{(R)-2-methyl-4-[4-(4-trifluoromethoxyphenoxy)benzyl]piperazin-1-yl}phenoxymethyl)-2-nitro-6,7-dihydro-5H-imidazo[2,1-b][1,3]oxazine]
[1]
  MIC: 0.0015 µg/mL (≈ 0.00235 µM)

## O=[N+]([O-])c1cn2c(n1)O[C@H](COc1ccc(N3CCN(Cc4ccc(NCc5ccc(C(F)(F)F)cc5)cc4)CC3)cc1)CC2 [Example 290, N-(4-{4-[4-((S)-2-nitro-6,7-dihydro-5H-imidazo[2,1-b][1,3]oxazin-7-ylmethoxy)phenyl]piperazin-1-ylmethyl}phenyl)-N-(4-trifluoromethylbenzyl)amine]
[1]
  MIC: 0.0008 µg/mL (≈ 0.00128 µM)

## O=[N+]([O-])c1cn2c(n1)OC(COc1ccc(-c3csc(-c4ccc(OC(F)(F)F)cc4)n3)cc1)CC2 (centres unmarked) [Example 56, 2-nitro-7-{4-[2-(4-trifluoromethoxyphenyl)thiazol-4-yl]phenoxymethyl}-6,7-dihydro-5H-imidazo[2,1-b][1,3]oxazine]
[1]
  MIC: 0.012 µg/mL (≈ 0.0231 µM)

## O=[N+]([O-])c1cn2c(n1)OC(COc1ccc(N3CCC(CCOc4ccc(OC(F)(F)F)cc4)CC3)nc1)CC2 (centres unmarked) [Example 79, 2-nitro-7-(6-{4-[2-(4-trifluoromethoxyphenoxy)ethyl]piperidin-1-yl}pyridin-3-yloxymethyl)-6,7-dihydro-5H-imidazo[2,1-b][1,3]oxazine]
[1]
  MIC: 0.012 µg/mL (≈ 0.0213 µM)

## O=[N+]([O-])c1cn2c(n1)O[C@@H](COc1ccc(-c3ccc(N4CCC(O)(C(F)(F)F)CC4)cc3)cc1)CC2 [Example 379, 1-[4′-((R)-2-nitro-6,7-dihydro-5H-imidazo[2,1-b][1,3]oxazin-7-ylmethoxy)biphenyl-4-yl]-4-trifluoromethylpiperidin-4-ol]
[1]
  MIC: 0.1 µg/mL (≈ 0.193 µM)

## O=[N+]([O-])c1cn2c(n1)O[C@@H](COc1ccc(N3CCC(Cc4ccc(OC(F)(F)F)cc4)CC3)cc1)CC2 [Example 383, (R)-2-nitro-7-{4-[4-(4-trifluoromethoxybenzyl)piperidin-1-yl]phenoxymethyl}-6,7-dihydro-5H-imidazo[2,1-b][1,3]oxazine]
[1]
  MIC: 0.003 µg/mL (≈ 0.00563 µM)

## C[C@@H]1CN(c2ccc(OC[C@H]3CCn4cc([N+](=O)[O-])nc4O3)cc2)CCN1Cc1ccc(OCc2ccc(C(F)(F)F)cc2)cc1 [Example 299, (R)-7-(4-{(R)-3-methyl-4-[4-(4-trifluoromethylbenzyloxy)benzyl]piperazin-1-yl}phenoxymethyl)-2-nitro-6,7-dihydro-5H-imidazo[2,1-b][1,3]oxazine]
[1]
  MIC: 0.0008 µg/mL (≈ 0.00125 µM)

## O=[N+]([O-])c1cn2c(n1)O[C@@H](COc1ccc(N3CCC(C4CCN(Cc5ccc(C(F)(F)F)cc5)CC4)CC3)cc1)CC2 [Example 415, (R)-2-nitro-7-{4-[1′-(4-trifluoromethylbenzyl)-4,4′-bipiperidin-1-yl]phenoxymethyl}-6,7-dihydro-5H-imidazo[2,1-b][1,3]oxazine]
[1]
  MIC: 0.0015 µg/mL (≈ 0.0025 µM)

## O=[N+]([O-])c1cn2c(n1)OC(COc1ccc(N3CCC(Oc4ccc(OC(F)(F)F)cc4)CC3)cc1)CC2 (centres unmarked) [Example 1, 2-nitro-7-{4-[4-(4-trifluoromethoxyphenoxy)piperidin-1-yl]phenoxymethyl}-6,7-dihydro-5H-imidazo[2,1-b][1,3]oxazine]
[1]
  MIC: 0.024 µg/mL (≈ 0.0449 µM)

## CN(c1ccc(OC(F)(F)F)cc1)C1CCN(c2ccc(OC[C@H]3CCn4cc([N+](=O)[O-])nc4O3)cc2)CC1 [Example 90, N-methyl-N-{1-[4-((R)-2-nitro-6,7-dihydro-5H-imidazo[2,1-b][1,3]oxazin-7-ylmethoxy)phenyl]piperidin-4-yl}-N-(4-trifluoromethoxyphenyl)amine]
[1]
  MIC: 0.012 µg/mL (≈ 0.0219 µM)

## O=[N+]([O-])c1cn2c(n1)O[C@@H](COc1ccc(N3CCN(S(=O)(=O)C(F)(F)C(F)(F)C(F)(F)C(F)(F)F)CC3)cc1)CC2 [Example 380, (R)-2-nitro-7-{4-[4-(nonafluorobutane-1-sulfonyl)piperazin-1-yl]phenoxymethyl}-6,7-dihydro-5H-imidazo[2,1-b][1,3]oxazine]
  MIC: 0.012 µg/mL (≈ 0.0187 µM)

## O=[N+]([O-])c1cn2c(n1)OC(COc1ccc(C3CCN(Cc4ccc(OC(F)(F)F)cc4)CC3)cc1)CC2 (centres unmarked) [Example 364, 2-nitro-7-{4-[1-(4-trifluoromethoxybenzyl)piperidin-4-yl]phenoxymethyl}-6,7-dihydro-5H-imidazo[2,1-b][1,3]oxazine]
[1]
  MIC: 0.024 µg/mL (≈ 0.0451 µM)

## O=[N+]([O-])c1cn2c(n1)OC(COc1ccc(N3CCN(CCCc4ccc(Oc5ccc(OC(F)(F)F)cc5)cc4)CC3)cc1)CC2 (centres unmarked) [Example 64, 2-nitro-7-[4-(4-{3-[4-(4-trifluoromethoxyphenoxy)phenyl]propyl}piperazin-1-yl)phenoxymethyl]-6,7-dihydro-5H-imidazo[2,1-b][1,3]oxazine]
[1]
  MIC: ≤ 0.006 µg/mL

## CC(C)(c1ccc(OCc2ccc(C(F)(F)F)cc2)cc1)N1CCN(c2ccc(OC[C@H]3CCn4cc([N+](=O)[O-])nc4O3)cc2)CC1 [Example 490, (R)-7-[4-(4-{1-methyl-1-[4-(4-trifluoromethylbenzyloxy)phenyl]ethyl}piperazin-1-yl)phenoxymethyl]-2-nitro-6,7-dihydro-5H-imidazo[2,1-b][1,3]oxazine]
[1]
  MIC: 0.0008 µg/mL (≈ 0.00123 µM)

## O=[N+]([O-])c1cn2c(n1)OC(COc1ccc(N3CCN(Cc4ccc(OC(F)(F)F)cc4)CC3)cc1)CC2 (centres unmarked) [Example 3, 2-nitro-7-{4-[4-(4-trifluoromethoxybenzyl)piperazin-1-yl]phenoxymethyl}-6,7-dihydro-5H-imidazo[2,1-b][1,3]oxazine]
[1]
  MIC: 0.05 µg/mL (≈ 0.0937 µM)

## COC1(c2ccc(C(F)(F)F)cc2)CCN(c2ccc(OC[C@H]3CCn4cc([N+](=O)[O-])nc4O3)cc2)CC1 [Example 471, (R)-7-{4-[4-methoxy-4-(4-trifluoromethylphenyl)piperidin-1-yl]phenoxymethyl}-2-nitro-6,7-dihydro-5H-imidazo[2,1-b][1,3]oxazine]
[1]
  MIC: 0.012 µg/mL (≈ 0.0225 µM)

## O=[N+]([O-])c1cn2c(n1)O[C@@H](COc1ccc(N3CCN(c4ccc(OCc5ccc(OC(F)(F)F)cc5)cc4)CC3)cc1)CC2 [Example 198, (R)-2-nitro-7-(4-{4-[4-(4-trifluoromethoxybenzyloxy)phenyl]piperazin-1-yl}phenoxymethyl)-6,7-dihydro-5H-imidazo[2,1-b][1,3]oxazine]
[1]
  MIC: ≤ 0.0015 µg/mL

## O=[N+]([O-])c1cn2c(n1)O[C@@H](COc1ccc(N3CCC(CCCc4ccc(C(F)(F)F)cc4)CC3)cc1)CC2 [Example 400, (R)-2-nitro-7-(4-{4-[3-(4-trifluoromethylphenyl)propyl]piperidin-1-yl}phenoxymethyl)-6,7-dihydro-5H-imidazo[2,1-b][1,3]oxazine]
[1]
  MIC: ≤ 0.0004 µg/mL

## O=[N+]([O-])c1cn2c(n1)O[C@@H](COc1ccc3c(c1)CCN(Cc1ccc(OCc4ccc(C(F)(F)F)cc4)cc1)C3)CC2 [Example 304, 6-((R)-2-nitro-6,7-dihydro-5H-imidazo[2,1-b][1,3]oxazin-7-ylmethoxy)-2-[4-(4-trifluoromethylbenzyloxy)benzyl]-1,2,3,4-tetrahydroisoquinoline]
[1]
  MIC: 0.012 µg/mL (≈ 0.0202 µM)

## O=[N+]([O-])c1cn2c(n1)OC(COc1ccc3c(c1)CCCN3CCCOc1ccc(OC(F)(F)F)cc1)CC2 (centres unmarked) [Example 143, 6-(2-nitro-6,7-dihydro-5H-imidazo[2,1-b][1,3]oxazin-7-ylmethoxy)-1-[3-(4-trifluoromethoxyphenoxy)propyl]-1,2,3,4-tetrahydroquinoline]
[1]
  MIC: 0.1 µg/mL (≈ 0.182 µM)
